In patent US11254720B2, “Methods and systems for designing and/or characterizing soluble lipidated ligand agents” (Tufts Medical Center, priority 2013, dated 2022):
Like-named read-outs stand apart in the source and are kept apart here. Values belong to the molecule of their own block, whether it stands above or below them. Non-standard residues stand in square brackets, D forms with d. Residues, ends and D or L forms follow the SMILES beside them. Tic = O=C(O)[C@@H]1Cc2ccccc2CN1

Experiments:
Adult CD1 mice = experiment: Chronic constriction injury neuropathic pain model, von Frey and acetone tests; assay type: in vivo, mouse; conditions: intrathecal 100 pmol, 1 week after CCI
Source text: Intrathecal injection of 1-stable chem (100 pmol), 1 week after CCI, reduces CCI-induced mechanical hypersensitivity (panels A+C) and cold allodynia (panel E). Intrathecal injection of ResolvinE1 (RvE1)(100 pmol), 1 week after CCI, reduces CCI-induced mechanical hypersensitivity (panels B+D) and cold allodynia (panel F). BL=baseline before surgery.
Adult CD1 mice (male, 25-35 g) were used for behavioral studies. Mice were group-housed and kept under a 12-hour light/dark cycle. […]
Nerve injury-induced mechanical allodynia and hypersensitivity were assessed by von Frey hairs as previously described (see Xu et al., Resolvin E1 inhibits neuropathic pain and spinal cord microglial activation following peripheral nerve injury, 2013, J. Neuroimmune Pharmacol, 8: 37-41). […] The 50% paw withdrawal threshold (PWT) was determined using Dixon's up-down method. For paw withdrawal frequency (PWF), the same von Frey hair (0.16 g) was applied 10 times and the number of positive responses to the stimulations counted. A positive response was scored if the mouse sharply withdrew the paw or flinched upon removal of the stimulus. […] In brief, a drop of acetone was placed against the plantar paw of the mouse and the mouse's response monitored for the next 20 seconds. […]

CCK2R = biological target: T1, CCK2R (Homo sapiens, UniProt P32239); experiment: Antagonist inhibition of agonist-induced CCK2R signaling (luciferase); assay type: cell-based
T1 construct: expressed in transfected cells; host or cells: HEK293
T1 sequence (P32239 1-447): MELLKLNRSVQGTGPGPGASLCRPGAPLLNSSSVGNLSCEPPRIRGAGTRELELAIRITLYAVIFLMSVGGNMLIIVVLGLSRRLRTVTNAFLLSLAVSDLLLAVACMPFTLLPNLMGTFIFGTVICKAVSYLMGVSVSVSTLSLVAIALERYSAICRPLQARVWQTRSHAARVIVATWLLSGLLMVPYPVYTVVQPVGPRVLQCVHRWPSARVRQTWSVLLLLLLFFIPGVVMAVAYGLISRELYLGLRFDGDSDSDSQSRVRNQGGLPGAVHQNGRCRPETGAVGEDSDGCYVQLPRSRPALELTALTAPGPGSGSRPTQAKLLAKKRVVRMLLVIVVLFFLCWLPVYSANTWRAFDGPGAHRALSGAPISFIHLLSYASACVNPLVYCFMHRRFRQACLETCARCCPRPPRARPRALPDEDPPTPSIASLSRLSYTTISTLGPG
Experimental: A) YM022 blocks tethered CCK4-Gly mediated CCK2R signaling. HEK293 cells were cotransfected with cDNAs encoding: CCK2R, a 5X-SRE-Luc-pest reporter gene, tCCK4-Gly (as indicated), and a β-galactosidase gene to control for transfection efficiency. Four hours following transfection, cells were with treated with increasing concentrations of YM022 for 20 hours. […] B) YM022 blocks s-CCK-4-Gly-COOH and l-CCK4-Gly-COOH mediated activation of CCK2R. HEK293 cells were transfected as indicated above. Twenty hours after transfection, cells were with treated with increasing concentrations of YM022 together with either 10 μM of l-CCK4-Gly-COOH or s-CCK4-Gly-COOH. […] Abbreviations: tCCK4-Gly, tethered glycine extended CCK4; s-CCK4-Gly-COOH, soluble glycine extended CCK4 with a C-terminal free acid; 1-CCK4-Gly-COOH, lipidated glycine extended CCK4 with a C-terminal free acid; CCK2R, cholecystokinin 2 receptor.

human CMKLR1 [1] = biological target: T2, human CMKLR1 (Homo sapiens, UniProt Q99788); experiment: Washout experiments (serial washes after 15 min ligand, luciferase readout); conditions: three washes after 15 min ligand
T2 sequence (Q99788 1-373): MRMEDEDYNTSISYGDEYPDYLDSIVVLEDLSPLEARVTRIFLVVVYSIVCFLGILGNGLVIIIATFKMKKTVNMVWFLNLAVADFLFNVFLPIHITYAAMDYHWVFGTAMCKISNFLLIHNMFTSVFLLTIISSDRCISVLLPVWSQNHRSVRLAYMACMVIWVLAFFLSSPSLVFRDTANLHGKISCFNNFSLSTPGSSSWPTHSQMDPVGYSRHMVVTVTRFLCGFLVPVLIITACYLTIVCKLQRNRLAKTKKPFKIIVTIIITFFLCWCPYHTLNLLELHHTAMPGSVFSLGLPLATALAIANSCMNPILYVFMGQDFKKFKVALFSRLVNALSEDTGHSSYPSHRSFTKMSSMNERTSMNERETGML
Experimental: (§1) Agonist activity was compared with and without serial washings shortly after addition of ligand. Briefly, HEK293 cells were plated and transfected as described above with the addition of a poly-L-lysine plate pretreatment step to enhance cell adhesion. Twenty-four hours after transfection, cells were stimulated with increasing concentrations of agonist for 15 minutes at 37° C. Selected wells were washed three times with serum-free media. Plates were then incubated for an additional 4 hours. Receptor mediated signaling was assessed using a luciferase based assay as described above.
(§2) HEK293 cells were transiently transfected with cDNAs encoding i) human or mouse CMKLR1, ii) a SRE5x-Luc reporter gene, iii) a Gαq5i66V chimera, and iv) a β-galactosidase control. Twenty-four hours after transfection, cells were stimulated with increasing concentrations of various ligands for 15 minutes. Selected wells were then washed three times with serum-free media and plates were further incubated for 4 hours.

mouse CMKLR1 [2] = biological target: T3, mouse CMKLR1 (Mus musculus, UniProt P97468); experiment: SRE-luciferase reporter gene assay in transfected HEK293 cells; conditions: for Activity of membrane-tethered ligand at mouse CMKLR1: tethered ligand cDNA cotransfected, luciferase 24 hours after transfection
T3 sequence (P97468 1-371): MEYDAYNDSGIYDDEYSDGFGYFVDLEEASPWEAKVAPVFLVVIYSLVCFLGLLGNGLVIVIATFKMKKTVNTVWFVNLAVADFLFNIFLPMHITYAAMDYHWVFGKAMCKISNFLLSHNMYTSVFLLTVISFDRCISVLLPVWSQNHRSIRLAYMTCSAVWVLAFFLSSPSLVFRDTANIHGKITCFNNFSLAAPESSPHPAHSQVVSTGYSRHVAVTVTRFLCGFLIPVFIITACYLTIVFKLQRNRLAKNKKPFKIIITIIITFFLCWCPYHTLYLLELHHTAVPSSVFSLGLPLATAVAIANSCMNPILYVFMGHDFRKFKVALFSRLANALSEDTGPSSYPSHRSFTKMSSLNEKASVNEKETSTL
Experimental: (§3) Receptor-mediated signaling was assessed as previously described. Briefly, HEK293 cells were plated at a density of 6,000 cells/well into 96-well clear-bottom plates and grown to ˜80% confluence. […] Expression of Gq5i66V directs signaling of the Gαi-coupled chemerin receptor to stimulation of a Gαq-dependent SRE5x-Luc-PEST reporter gene. For experiments investigating the agonist function of soluble and lipidated peptides, tethered ligand cDNA was not included in the transfection mixture. Twenty four hours after transfection, cells were stimulated with or without peptide agonist for 4 hours in serum-free medium. […] Following ligand stimulation, the media was aspirated and luciferase activity measured using SteadyLite reagent and quantified using a TopCount NTX. A β-galactosidase assay was then performed following assessment of luminescence. Cleavage of 2-nitrophenyl β-D-galactopyranoside substrate was quantified after incubation of cell lysates at 37° C. for 30 to 60 minutes by measuring the optical density at 420 nm on a SpectraMax microplate reader. Luciferase reporter gene activities were normalized to corresponding β-galactosidase activity controls.
(§4) HEK293 cells were transiently transfected with cDNAs encoding i) human or mouse CMKLR1, ii) a SRE5x-Luc reporter gene, iii) a Gαq5i66V chimera, and iv) a β-galactosidase control. Twenty-four hours after transfection, cells were stimulated with ligand for 4 hours and luciferase activity determined as described in Experimental Procedures. Luciferase activity was normalized relative to the maximal value observed using saturating concentrations of the corresponding soluble ligand (=100%). […] As a next step, the effect of membrane anchoring on chemerin activity was examined. […] HEK293 cells were transiently transfected with cDNAs encoding i) various tethered ligands, ii) human or mouse CMKLR1, iii) a SRE5x-Luc reporter gene, iv) aGαq5i66V chimera, and v) a β-galactosidase control. Twenty-four hours after transfection, luciferase activity was determined as described in Experimental Procedures.
(§5) HEK293 cells were transiently transfected with cDNAs encoding i) 8 ng of various tethered ligands, ii) human or mouse CMKLR1, iii) a SRE5x-Luc reporter gene, iv) a Gαq5i66V chimera, and v) a β-galactosidase control. Twenty-four hours after transfection, luciferase activity was determined as described in Experimental Procedures.

human CMKLR1 [3] = biological target: T2, human CMKLR1; experiment: as above; conditions: for Activity of membrane-tethered ligand at human CMKLR1: tethered ligand cDNA cotransfected, luciferase 24 hours after transfection
Experimental: as §3, §4, §5

mouse CMKLR1 [4] = biological target: T3, mouse CMKLR1; experiment: Washout experiments (serial washes after 15 min ligand, luciferase readout); conditions: three washes after 15 min ligand
Experimental: as §1, §2

[5] = tested on: HEK293 cells transfected with vector control (pcDNA1.1); experiment: Luciferase reporter assay in cells transfected with vector control; assay type: cell-based, human; conditions: cells transfected with pcDNA1.1 vector control
Experimental: as §3

Molecule: CC[C@@H](O)/C=C/C=C\C[C@@H](O)/C=C/C=C/C=C\[C@@H](O)CCCC(=O)O [RvE1, reference compound]
Time point at which a significant decrease in pain scores was observed (Adult CD1 mice): 1 h

Molecule: Cc1cccc(NC(=O)N[C@@H]2N=C(c3ccccc3)c3ccccc3N(CC(=O)c3ccccc3C)C2=O)c1 [YM022]
IC50 (CCK2R; agonist l-CCK4-Gly-COOH 10 μM, 4 hours, read-out: IC50 for inhibition of l-CCK4-Gly-COOH induced CCK2R signaling): 10.2 nM
IC50 (CCK2R; agonist s-CCK4-Gly-COOH 10 μM, 4 hours, read-out: IC50 for inhibition of s-CCK4-Gly-COOH induced CCK2R signaling): 0.84 nM
IC50 (CCK2R; agonist tCCK4-Gly (tethered), antagonist 20 hours, read-out: IC50 for inhibition of tCCK4-Gly induced CCK2R signaling): 0.54 nM

Molecule: CC(C)C[C@H](NC(=O)[C@H](Cc1ccccc1)NC(=O)[C@H](N)Cc1ccc(O)cc1)C(=O)N1CCC[C@H]1C(=O)N[C@H](CO)C(=O)N[C@@H](CCC(N)=O)C(=O)N[C@@H](Cc1ccccc1)C(=O)N[C@H](C)C(=O)N1Cc2ccccc2C[C@H]1C(=O)N[C@@H](CO)C(=O)O [s-Stable Chem, reference compound] (H-[dY]FLP[dS]QF[dA][Tic]S-OH)
Agonist activity after serial washes, human CMKLR1 (human CMKLR1 [1]): rapidly decreased
EC50 (mouse CMKLR1 [2]; pEC50, Mouse CMKLR1, no wash, mean ± S.E.M.): 12 nM
EC50 (human CMKLR1 [3]; pEC50, Human CMKLR1, no wash, mean ± S.E.M.): 61.7 nM
Agonist activity after serial washes, mouse CMKLR1 (mouse CMKLR1 [4]): rapidly decreased
Agonist activity without CMKLR1 expression [5]: no agonist activity

B1: tChem 21-157: membrane-tethered full length chemerin (amino acids 21-157) (protein)
chain: MSTSMIRDVELAEEALPKKTGGPQGSRRCLFSLFIVAGATTLFCLLHFGVIELTEAQRRGLQVALEEFHKHPPVQWAFQETSVESAVDTPFPAGIFVRLEFKLQQTSCRKRDWKKPECKVRPNGRKRKCLACIKLGSEDKVLGRLVHCPIETQVLREAEEHQETQCLRVQRAGEDPHSFYFPGQFAFS
modifications: left off: small tags and cut ends
Activity of membrane-tethered ligand at mouse CMKLR1 (mouse CMKLR1 [2]): activated
Activity of membrane-tethered ligand at human CMKLR1 (human CMKLR1 [3]): activated

B2: tChem 1-163: membrane-tethered ligand encoding pre-prochemerin (amino acids 1-163), TNFα transmembrane domain (protein)
chain: MSTSMIRDVELAEEALPKKTGGPQGSRRCLFSLFIVAGATTLFCLLHFGVIMRRLLIPLALWLGAVGVGVAELTEAQRRGLQVALEEFHKHPPVQWAFQETSVESAVDTPFPAGIFVRLEFKLQQTSCRKRDWKKPECKVRPNGRKRKCLACIKLGSEDKVLGRLVHCPIETQVLREAEEHQETQCLRVQRAGEDPHSFYFPGQFAFSKALPRS
modifications: left off: small tags and cut ends
Activity of membrane-tethered ligand at mouse CMKLR1 (mouse CMKLR1 [2]): lack activity
Activity of membrane-tethered ligand at human CMKLR1 (human CMKLR1 [3]): lack activity

Other lines, results leading:

Activity of membrane-tethered ligand at mouse CMKLR1 (mouse CMKLR1 [2]): activated
Activity of membrane-tethered ligand at human CMKLR1 (human CMKLR1 [3]): activated
Activity of membrane-tethered ligand at human CMKLR1 (human CMKLR1 [3]; listed as FS): comparable activity
Molecule: tChem 149-157: membrane-tethered C-terminal chemerin peptide (amino acids 149-157), endogenous sequence ending phenylalanine-serine (MSTSMIRDVELAEEALPKKTGGPQGSRRCLFSLFIVAGATTLFCLLHFGVIYFPGQFAFS; left off: small tags and cut ends)

Activity of membrane-tethered ligand at mouse CMKLR1 (mouse CMKLR1 [2]): lack activity
Activity of membrane-tethered ligand at human CMKLR1 (human CMKLR1 [3]): lack activity
B3: tGalanin: negative control membrane-tethered ligand with the amino acid sequence of human galanin (protein)
chain: MSTSMIRDVELAEEALPKKTGGPQGSRRCLFSLFIVAGATTLFCLLHFGVIGWTLNSAGYLLGPHAVGNHRSFSDKNGLTS
modifications: left off: small tags and cut ends
